Like-named read-outs stand apart in the source and are kept apart here.
Columns and labels:
OCT2 = target: T1, OCT2 (Homo sapiens, UniProt O15244); test: Inhibition of model substrate uptake in OCT2-overexpressing HEK293 cells; conditions: for IC50: IC50, OCT2, Table S5, 2 μM ASP+ as model substrate; for selectivity ratio at 5 min / inhibition at 5 min, 20 μM: human, OCT2-overexpressing HEK293 cells; for selectivity ratio at 5 min: pH 7.4
T1 sequence (O15244 1-555): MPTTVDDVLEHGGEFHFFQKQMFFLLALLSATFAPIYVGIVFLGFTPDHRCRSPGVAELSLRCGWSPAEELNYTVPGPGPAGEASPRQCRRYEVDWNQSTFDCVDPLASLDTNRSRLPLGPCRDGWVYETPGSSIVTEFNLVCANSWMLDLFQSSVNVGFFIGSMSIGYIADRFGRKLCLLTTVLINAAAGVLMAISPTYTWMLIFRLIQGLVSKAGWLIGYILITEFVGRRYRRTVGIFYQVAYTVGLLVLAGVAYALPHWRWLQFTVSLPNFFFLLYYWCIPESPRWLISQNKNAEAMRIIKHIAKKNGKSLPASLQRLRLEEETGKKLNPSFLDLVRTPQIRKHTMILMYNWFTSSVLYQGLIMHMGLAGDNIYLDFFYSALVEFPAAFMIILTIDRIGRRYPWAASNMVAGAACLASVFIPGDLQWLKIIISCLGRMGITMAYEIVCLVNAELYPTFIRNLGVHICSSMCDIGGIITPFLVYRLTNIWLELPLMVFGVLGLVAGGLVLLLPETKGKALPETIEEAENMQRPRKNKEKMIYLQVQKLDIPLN

OCT3 = target: T2, OCT3 (Homo sapiens, UniProt O75751); test: Inhibition of model substrate uptake in OCT3-overexpressing HEK293 cells; type: cell-based; conditions: for IC50: 2 μM ASP+ or ethambutol as model substrate
T2 construct: expressed in transfected cells; host or cells: HEK293
T2 sequence (O75751 1-556): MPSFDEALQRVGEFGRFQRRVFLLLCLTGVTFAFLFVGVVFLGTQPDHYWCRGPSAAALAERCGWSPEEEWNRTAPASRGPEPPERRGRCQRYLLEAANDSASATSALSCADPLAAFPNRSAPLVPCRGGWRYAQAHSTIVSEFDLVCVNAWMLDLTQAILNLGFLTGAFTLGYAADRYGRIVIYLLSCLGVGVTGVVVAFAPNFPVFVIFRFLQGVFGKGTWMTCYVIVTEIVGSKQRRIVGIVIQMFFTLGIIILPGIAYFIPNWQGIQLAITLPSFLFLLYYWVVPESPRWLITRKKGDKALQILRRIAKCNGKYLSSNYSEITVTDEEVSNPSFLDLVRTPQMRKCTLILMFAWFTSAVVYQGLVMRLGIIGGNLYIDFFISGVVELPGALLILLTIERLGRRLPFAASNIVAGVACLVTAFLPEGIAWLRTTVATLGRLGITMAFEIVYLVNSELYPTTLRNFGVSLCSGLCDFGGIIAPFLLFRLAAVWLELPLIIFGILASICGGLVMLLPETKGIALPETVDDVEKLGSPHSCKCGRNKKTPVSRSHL
Procedure, shortened: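 IC50 values were fitted with a Hill equation from net uptake, calculated as uptake in overexpressing HEK293 cells minus empty-vector control uptake. Cells were exposed for 5 min to 2 μM model substrate alone, with 20 μM inhibitor, or with a concentration series. Uptake was quantified by ASP^+ fluorescence or LC–MS/MS after lysis in 80% acetonitrile.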

[1] = pH 7.4, probe (S,S)-ethambutol (2 μM), (S,S)-Ethambutol inhibition [%], OCT2, 20 μM inhibitor, 2 μM (S,S)-ethambutol, 5 min
[2] = pH 7.4, probe ASP+ (2 μM), ASP+ inhibition [%], OCT2, 20 μM inhibitor, 2 μM ASP+, 5 min
[3] = pH 7.4, probe N-ethyllidocaine (2 μM), N-Ethyllidocaine inhibition [%], OCT2, 20 μM inhibitor, 2 μM N-ethyllidocaine, 5 min
[4] = HEK293, 5 min, read-out: (S,S)-Ethambutol inhibition [%], OCT3, 20 μM inhibitor, 2 μM (S,S)-ethambutol, 5 min
[5] = HEK293, OCT3, 20 μM inhibitor, 2 μM ASP+, 5 min, read-out: ASP+ inhibition [%]

IC50 (OCT2; 5 min) [µM] | inhibition at 5 min, 20 μM (OCT2; [1]) [%] | inhibition at 5 min, 20 μM (OCT2; [2]) [%] | inhibition at 5 min, 20 μM (OCT2; [3]) [%] | inhibition at 20 µM (OCT3; HEK293, 5 min, read-out: (S)-Zolmitriptan inhibition [%], OCT3, 20 μM inhibitor, 2 μM (S)-zolmitriptan, 5 min) [%] | inhibition at 20 µM (OCT3; [4]) [%] | inhibition at 20 µM (OCT3; [5]) [%] | IC50 (OCT3; OCT3, Table S5, 5 min, read-out: IC50) [µM] | fold more potent in the inhibition of OCT3 than the respective counterpart (OCT3; OCT3, label = the more potent enantiomer) [fold] | (S,S)-Ethambutol inhibition [%] (OCT2; OCT2, 20 μM inhibitor, 2 μM (S,S)-ethambutol, 5 min) | N-Ethyllidocaine inhibition [%] (OCT2; OCT2, 20 μM inhibitor, 2 μM N-ethyllidocaine, 5 min) | IC50 (OCT3; IC50, OCT3, Table S5, 5 min) [µM] | Stereoselectivity (x-fold for the named isomer) (OCT3; OCT3, Table S5, ratio of the IC50 values of both isomers, label = isomer named in the cell (as a rule the one with the higher IC50)) [fold] | (S)-Zolmitriptan inhibition [%] (OCT3; OCT3, 20 μM inhibitor, 2 μM (S)-zolmitriptan, 5 min) | SMILES | selectivity ratio at 5 min (OCT2)
82.4 | 15.8 | 16.4 | 19.6 | 18.4 | 30.2 | 6.1 | – | – | – | – | – | – | – | CCCN[C@H]1CCc2nc(N)sc2C1 [(S)-Pramipexole] | 4
– | 13.3 | 17.2 | 7.3 | – | 55 | 38.5 | 17.3 | 25 | – | – | – | – | – | CN(C)CCc1c[nH]c2ccc(C[C@H]3COC(=O)N3)cc12 [(S)-Zolmitriptan] | –
31.8 | – | 86.1 | – | – | 64.7 | 31.3 | – | – | 7.4 | 28.2 | 65 | 1.6 | 42.2 | CCN(CC)CC#CCOC(=O)[C@](O)(c1ccccc1)C1CCCCC1 [(R)-Oxybutynine] | 1.6

Reference: article PMC10698726 (Molecular Pharmaceutics, 2023)
